Measurements published in patent publication US9988445B2, “Method of treatment of pain by administration of a CCL17 specific antibody” (The University of Melbourne, priority 2013, dated 2018).
“Also recorded” adds a separate entry of the source.

Key:
mice [1] = test: GM-CSF given intraplantarly, pain development (Incapacitance Tester); format: in vivo; settings: GM-CSF 20 ng i.pl., four hours, vs. saline
Experimental: Mice were treated with a monoclonal antibody (mAb) to CCL17 (300 μg) or with an isotype control mAb (300 μg) at the same time as being given GM-CSF and pain was measured at four hours later.
(§1) An Incapacitance Tester (Dual Weight Averager) is used to automatically and reproducibly assess the analgesic potency by measuring the weight distribution on the two hind paws.
(§2) Weight placed on each hind limb was measured over a 3 second period. 3 separate measurements taken per mouse for each time point then averaged. Results are expressed as injected limb/control limb×100. Thus a value of 100 means that equal weight is being placed on the right and the left limb. A value below 100 means less weight is being placed on the injected limb (left) compared with the control limb (right).

mice [2] = test: CCL17 given intraplantarly, pain development (Incapacitance Tester); format: in vivo; settings: CCL17 50 ng i.pl., 6 hours, p<0.05 vs. saline
Experimental: as §1, §2
Pain is identified as a decrease in the ratio of weight distribution between the CCL17-injected and saline-injected paw where a percentage of less than 95 indicates pain development (see Example 1 above). Thus, CCL17 can induce pain.

With GM-CSF: proinflammatory cytokine GM-CSF the “pain development after i.pl. injection in the footpad” value (mice [1]) was “develop pain”.

B1: CCL17: chemokine (C-C motif)17, also known as thymus- and activation-regulated chemokine (protein, UniProt Q92583 24-94, looked up)
C-C motif chemokine 17: ARGTNVGRECCLEYFKGAIPLRKLKTWYQTSEDCSRDAIVFVTVQGRAICSDPNNKRVKNAVKYLQSLERS
For B1, the “pain development (ratio of weight distribution between CCL17-injected and saline-injected paw; less than 95 indicates pain)” value (mice [2]) was “develop pain; also recorded: induces pain”.
